Test results as given in article PMC3466269, “A Comprehensive Strategy to Discover Inhibitors of the Translesion Synthesis DNA Polymerase κ” (PLoS ONE, 2012).

What was measured:
Type in all cases: biochemical
[1] = biological target: T1, Human pol κ (Homo sapiens, UniProt Q9UBT6); experiment: Radioactive gel-based primer extension (TLS) past acrolein-derived ring-opened reduced form of γ-HOPdG, pol κ; conditions: primer extension, adducted DNA, 0.25 nM pol κ; average ± standard error, three experiments; read-out: gel: ring-opened reduced form of γ-HOPdG: IC50
T1 construct: Human pol κ (residues 19–526) was purified as previously reported; made in house
T1 sequence (Q9UBT6 19-526): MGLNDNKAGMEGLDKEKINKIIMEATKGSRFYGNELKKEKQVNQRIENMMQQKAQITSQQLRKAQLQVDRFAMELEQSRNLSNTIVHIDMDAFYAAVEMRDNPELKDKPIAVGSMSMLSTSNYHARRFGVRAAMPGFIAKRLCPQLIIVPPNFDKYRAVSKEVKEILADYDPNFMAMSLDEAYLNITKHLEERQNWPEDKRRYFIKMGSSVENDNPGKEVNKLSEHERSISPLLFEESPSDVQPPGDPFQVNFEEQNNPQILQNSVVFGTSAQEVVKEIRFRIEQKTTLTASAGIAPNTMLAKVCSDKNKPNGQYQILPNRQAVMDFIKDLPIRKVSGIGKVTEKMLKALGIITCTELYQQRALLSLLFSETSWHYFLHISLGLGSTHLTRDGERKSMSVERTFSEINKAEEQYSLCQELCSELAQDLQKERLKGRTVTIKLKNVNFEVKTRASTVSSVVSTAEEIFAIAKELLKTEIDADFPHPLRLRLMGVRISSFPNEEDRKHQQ
Procedure: (§1) The reactions with pol κ, pol η, and pol ι were carried out in the buffers containing 25 mM Tris-HCl, pH 7.5, 8 mM MgCl2, 10% glycerol, 100 µg/mL bovine serum albumin, and 5 mM DTT. Buffers for pol δ reactions contained 40 mM Hepes-KOH, pH 6.8, 10% glycerol, 200 µg/mL bovine serum albumin, 1 mM DTT, and 8 mM MgCl2. Final concentration of pol κ, pol η, pol ι, or pol δ in the reaction was 0.25 nM, 1 nM, 2.5 nM, or 4 nM, respectively. In this assay, a polymerase was preincubated with the compound for 15 min at room temperature. Primer extensions were then initiated by the addition of DNA substrate at final concentration of 5 nM and carried out for 30 min at room temperature in the presence of 100 µM dCTP and dGTP. The reactions were terminated by the addition of an equal volume of a dye solution containing 95% (v/v) formamide, 10 mM EDTA, 0.03% (w/v) xylene cyanol, and 0.03% (w/v) bromphenol blue. Reaction products were separated through a 15% acrylamide gel containing 8 M urea and visualized with a PhosphorImager screen. The ratio of extended primer to the total amount of primer was measured using ImageQuant 5.2 software to calculate the percentage of primer extended. IC50 values were determined by fitting the data to variable slope four-parameter equations using GraphPad Prism 5.
The primary role of pol κ is to bypass DNA lesions. Therefore, it was critical to establish the assays to investigate the capability of these compounds to inhibit lesion bypass activity of pol κ. Radioactive gel-based primer extension reactions were carried out using a DNA substrate containing a site-specific acrolein-derived ring-opened reduced form of γ-HOPdG, a lesion that pol κ can efficiently bypass in vitro [13].

[2] = biological target: T2, Human pol η (residues 1–437) (Homo sapiens, UniProt Q9Y253); experiment: Radioactive gel-based primer extension assay on non-damaged DNA, pol η; conditions: average ± standard error, three experiments
T2 construct: Human pol η (residues1–437) was purified following the same procedures; made in house
T2 sequence (Q9Y253 1-437): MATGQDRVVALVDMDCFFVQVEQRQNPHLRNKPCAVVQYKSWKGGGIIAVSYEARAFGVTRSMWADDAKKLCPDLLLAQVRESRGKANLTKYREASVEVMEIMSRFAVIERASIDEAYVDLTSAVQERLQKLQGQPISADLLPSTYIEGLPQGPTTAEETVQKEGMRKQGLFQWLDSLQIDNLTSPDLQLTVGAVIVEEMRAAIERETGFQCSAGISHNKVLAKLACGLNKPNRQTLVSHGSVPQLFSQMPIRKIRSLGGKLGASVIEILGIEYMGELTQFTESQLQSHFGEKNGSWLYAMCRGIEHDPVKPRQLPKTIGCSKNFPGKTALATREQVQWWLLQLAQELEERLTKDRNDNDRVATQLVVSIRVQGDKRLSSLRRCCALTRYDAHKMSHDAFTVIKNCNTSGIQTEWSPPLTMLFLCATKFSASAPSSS
Procedure: as §1, with “Prism 5. […]” for “Prism 5.”

[3] = biological target: T3, Human pol ι (Homo sapiens, UniProt Q9UNA4); experiment: Radioactive gel-based primer extension assay on non-damaged DNA, pol ι; conditions: average ± standard error, three experiments
T3 construct: purchased Enzymax Inc. (Lexington, KY)
T3 sequence (Q9UNA4 1-740): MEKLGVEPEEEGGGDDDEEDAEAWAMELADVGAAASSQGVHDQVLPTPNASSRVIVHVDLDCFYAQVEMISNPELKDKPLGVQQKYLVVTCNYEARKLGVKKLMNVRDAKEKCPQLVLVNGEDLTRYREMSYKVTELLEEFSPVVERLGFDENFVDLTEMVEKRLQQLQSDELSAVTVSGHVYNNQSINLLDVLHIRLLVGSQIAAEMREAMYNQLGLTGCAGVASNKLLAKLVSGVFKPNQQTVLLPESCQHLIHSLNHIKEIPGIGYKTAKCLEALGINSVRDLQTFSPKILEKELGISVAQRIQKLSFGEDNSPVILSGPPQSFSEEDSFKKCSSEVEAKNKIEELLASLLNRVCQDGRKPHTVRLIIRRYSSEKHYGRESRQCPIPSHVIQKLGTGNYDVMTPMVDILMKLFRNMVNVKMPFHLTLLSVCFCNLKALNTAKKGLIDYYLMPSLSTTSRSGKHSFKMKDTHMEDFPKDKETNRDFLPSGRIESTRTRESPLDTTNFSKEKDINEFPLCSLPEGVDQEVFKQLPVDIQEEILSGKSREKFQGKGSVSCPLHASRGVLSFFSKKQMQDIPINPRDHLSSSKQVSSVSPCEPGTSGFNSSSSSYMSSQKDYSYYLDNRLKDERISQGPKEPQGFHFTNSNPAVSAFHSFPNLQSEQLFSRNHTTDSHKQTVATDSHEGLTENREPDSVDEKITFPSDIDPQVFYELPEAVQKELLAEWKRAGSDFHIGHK
Procedure: as §1

[4] = biological target: T1, Human pol κ; experiment: Radioactive gel-based primer extension assay on non-damaged DNA, pol κ; conditions: primer extension, non-damaged DNA, 0.25 nM pol κ; average ± standard error, three experiments; read-out: gel: non-damaged: IC50
Procedure: as §1

IC50 [1]: 11 ± 1.5 µM
Compound: CCOc1nc2cccc(C(=O)OC(C)OC(=O)OC3CCCCC3)c2n1Cc1ccc(-c2ccccc2-c2nnn[nH]2)cc1 (stereo not shown) [candesartan cilexetil, Candesartan cilexetil]
IC50 [2]: 11.2 ± 1 µM
IC50 [3]: 6.2 ± 0.6 µM
IC50 [4]: 9.2 ± 0.5 µM
